Test results as given in paper PMC7700809 (Molecular Biomedicine, 2020).
Read-outs that look alike come from different tables or passages of the source.

Assays:
[1] = In vivo plasma pharmacokinetics in rats; set-up: species or system Sprague-Dawley rats; conditions: Rat; for MRT last: read-out: MRT0-t; for MRT inf: read-out: MRT0-∞
Method: After dosage, blood samples were collected into heparinized tubes at 2, 5, 15, 30, 60, 120, 240, 360, 540, and 720 min for the i.v. group, and at 5, 15, 30, 60, 90, 120, 240, 360, 540, 720 and 1440 min for the i.g. group. Plasma (100 μL) was isolated from the blood sample by centrifuging at 4 °C and 6000 rpm for 3 min and then stored at − 80 °C until analysis. An aliquot of 100 μL of each plasma sample was mixed with 20 μL of internal standard working solution (200 ng/mL of caffeine). Methanol (400 μL) was then added for precipitation. After vortexing for 5 min and centrifuging at 14000 rpm for 10 min, 5 μL of the supernatant was injected for LC-MS/MS analysis.
The PK parameters were analyzed through the noncompartment model using WinNonlin 6.1 software (Pharsight Corporation, Mountain View, USA), including half-life (T1/2), the peak of the plasma concentration (Cmax), the time to peak of the plasma concentration (Tmax), the area under the plasma concentration-time curve during the period of observation (AUC0-t), the area under the plasma concentration-time curve from zero to infinity (AUC0-∞), clearance (CL), apparent volume of distribution (Vd), and the mean residence time.

in vivo [2] = conditions: male, mouse, lung, po
Method: (§3) The male mice (20–25 g) and Sprague-Dawley rats (180–220 g) were provided by Laboratory Animal Center of Anhui Medical University (Hefei, China), and the beagle dogs were obtained from Nanjing Bosgene Biotech Co., Ltd. All the animals were housed under control conditions (temperature 23 ± 2 °C, humidity 50% ± 5%, 12 h dark/light cycle) with standardized diet and acclimatized for 7 days, prior to the experiments.
(§4) Seventy-two mice or rats were randomly and equally divided into two groups. […] Tissues (liver, lung, and kidney) were promptly harvested at 1, 2, 4, 6, 9, 12, 24, 48, 72, and 144 h. Each tissue sample was homogenized (Tissue sample:saline ratio of 1:5, w/v). Tissue samples were stored at − 80 °C until further analysis. The preparation process for analysis was the same as described above for plasma.
(§5) The LC-MS/MS system consisted of a SHIMADZU LC-30 AD series HPLC system (Shimadzu, Kyoto, Japan) and API4000 triple quadrupole mass spectrometer (Applied Biosystems Sciex, Ont., Canada) with electrospray ionization (ESI) source. Separation was carried out on a C18 column (2.1 × 100 mm, 5 μm, Hanbon, Jiangsu, China) kept at 40 °C. The mobile phase consisted of water (containing 0.1% formic acid, mobile phase A) and methanol (mobile phase B) with rate set at 0.3 mL/min. The optimal gradient elution curve included 0–1.0 min, 10% B; a linear increase to 90% a within 0.5 min; 90% B for 3.5 min; a linear decrease to 10% B within 0.5 min. 10% B for 1.5 min; 7.00 min, stop.
(§6) LC-MS/MS was performed in the positive and multiple reaction monitoring (MRM) mode.

TNF-α = TNF-α protein level in M1 polarized THP-1 macrophages (ELISA); assay type: cell-based, Human; conditions: 0.1 μM, 36 h
Method: (§1) Results are expressed as means ±S.D. (n = 3).
(§2) Human monocytic THP-1 cells were maintained in RPMI 1640 medium (Corning, USA) supplemented with 2% L-glutamine,10% fetal bovine serum (FBS), 1% penicillin/ streptomycin and […] ß-mercaptoethanol. THP-1 monocytes are differentiated into macrophages by 24 h incubation with 150 nM phorbol 12-myristate 13-acetate (PMA, Sigma, P8139) followed by 24 h incubation in RPMI medium. Macrophages were polarized in M1 macrophages by incubation with 20 ng/ml of IFN-γ (R&D system, #285-IF) and 100 ng/ml of LPS (Sigma, #8630). […] Cytokine secretion in the culture medium was assayed using an ELISA kit according to the procedure recommended by the supplier (IL-6 (MultiSciences, 70-EK106/2–96), TNFα (MultiSciences,70-EK182HS-96)).

[3] = mice
IL-6 = assay: LPS induced IL-6 protein level in M1 polarized THP-1 macrophages (ELISA); assay type: cell-based, Human; conditions: 0.01 μM, 36 h
Method: as §1, §2

[4] = Lung distribution in rats after oral administration
Method: as §3, §4, §5, §6

in vivo [5] = conditions: Sprague-Dawley, rat, lung, po
Method: as §3, §4, §5, §6

in vitro = conditions: African green monkey
[6] = system: SARS-CoV-2 specific nucleocapsid; assay: Western blot analysis of nucleocapsid level in Vero cells; assay type: cell-based
[7] = Sprague-Dawley, iv, I.V. 1 mg/kg
[8] = Sprague-Dawley, po, P.O. 10 mg/kg

SMILES: CC[C@H]1CN2CCc3cc(OC)c(OC)cc3[C@@H]2C[C@@H]1C[C@H]1NCCc2cc(OC)c(OC)cc21 [Emetine]
- AUMC0-t ([1]; I.V. 1 mg/kg): 131 ± 18 hr*hr.*ng/mL
- AUMC0-∞ ([1]; I.V. 1 mg/kg): 320 ± 141 hr*hr.*ng/mL
- AUMC0-t ([1]; P.O. 10 mg/kg): 1989 ± 15 hr*hr.*ng/mL
- AUMC0-∞ ([1]; P.O. 10 mg/kg): 3676 ± 1871 hr*hr.*ng/mL
- Cl ([1]; P.O. 10 mg/kg): 45,918 ± 5515 mL/hr./kg
- AUC(0-inf) [1, 7]: 39.8 ± 11.3 ng·h/mL
- AUC(0-t) [1, 7]: 29.8 ± 6.1 ng·h/mL
- C0 [1, 7]: 33.5 ± 2.4 ng/mL
- Cmax [1, 7]: 26.9 ± 4.8 ng/mL
- Tmax [1, 7]: 0.03 h
- clearance [1, 7]: 445 mL/min/kg
- half-life [1, 7]: 268 ± 70.8 min
- MRT last [1, 7]: 4.41 ± 0.31 h
- MRT inf [1, 7]: 7.76 ± 1.81 h
- Vd ([1]; Sprague-Dawley, iv, I.V. 1 mg/kg, read-out: Vz): 163 L/kg
- AUC(0-inf) [1, 8]: 220 ± 28 ng·h/mL
- AUC(0-t) [1, 8]: 172 ± 18 ng·h/mL
- Cmax [1, 8]: 12.2 ± 3.3 ng/mL
- Tmax [1, 8]: 9 h
- half-life [1, 8]: 310 ± 250 min
- bioavailability ([1]; Sprague-Dawley, po, P.O. 10 mg/kg vs I.V. 1 mg/kg, read-out: F (oral bioavailability)): 55.3 ± 7.1%
- MRT last [1, 8]: 11.6 ± 1.33 h
- MRT inf [1, 8]: 16.2 ± 6 h
- concentration at 12 h (in vivo [2]; 1 mg/kg): 1800 nM
- concentration at 72 h (in vivo [2]; 1 mg/kg): 230 nM
- concentration at 1 h (in vivo [2]; 1 mg/kg/day): 5 to 6 µM
- concentration at 72 h (in vivo [2]; 1 mg/kg/day): 2170 nM
- TNF-α expression (TNF-α): moderate effect
- Lung concentration ([3]; 1 mg/kg I.V. (12 h value of Table s2)): 3.8 µM
- Kidney concentration ([3]; I.V. 1 mg/kg, 0.033 h): 8.52 ± 1.25 µM
- Liver concentration ([3]; I.V. 1 mg/kg, 0.033 h): 4.11 ± 1.25 µM
- Plasma concentration ([3]; I.V. 1 mg/kg, 0.033 h): 0.15 ± 0.06 µM
- Kidney concentration ([3]; I.V. 1 mg/kg, 0.083 h): 8.04 ± 0.57 µM
- Liver concentration ([3]; I.V. 1 mg/kg, 0.083 h): 3.05 ± 0.23 µM
- Lung concentration ([3]; I.V. 1 mg/kg, 0.083 h): 16.5 ± 1.59 µM
- Plasma concentration ([3]; I.V. 1 mg/kg, 0.083 h): 0.11 ± 0.02 µM
- Kidney concentration ([3]; I.V. 1 mg/kg, 0.5 h): 9.48 ± 1.10 µM
- Liver concentration ([3]; I.V. 1 mg/kg, 0.5 h): 5.01 ± 1.13 µM
- Lung concentration ([3]; I.V. 1 mg/kg, 0.5 h): 10.3 ± 1.45 µM
- Plasma concentration ([3]; I.V. 1 mg/kg, 0.5 h): 0.04 ± 0.02 µM
- Kidney concentration ([3]; I.V. 1 mg/kg, 1 h): 9.24 ± 0.44 µM
- Liver concentration ([3]; I.V. 1 mg/kg, 1 h): 4.78 ± 0.43 µM
- Lung concentration ([3]; I.V. 1 mg/kg, 1 h): 7.73 ± 1.22 µM
- Plasma concentration ([3]; I.V. 1 mg/kg, 1 h): 0.03 ± 0.006 µM
- Kidney concentration ([3]; I.V. 1 mg/kg, 2 h): 9.04 ± 0.15 µM
- Liver concentration ([3]; I.V. 1 mg/kg, 2 h): 6.12 ± 1.37 µM
- Lung concentration ([3]; I.V. 1 mg/kg, 2 h): 7.12 ± 2.30 µM
- Plasma concentration ([3]; I.V. 1 mg/kg, 2 h): 0.012 ± 0.003 µM
- Kidney concentration ([3]; I.V. 1 mg/kg, 4 h): 6.16 ± 0.77 µM
- Liver concentration ([3]; I.V. 1 mg/kg, 4 h): 6.46 ± 0.57 µM
- Lung concentration ([3]; I.V. 1 mg/kg, 4 h): 5.85 ± 1.20 µM
- Plasma concentration ([3]; I.V. 1 mg/kg, 4 h): 0.007 ± 0.001 µM
- Liver concentration ([3]; I.V. 1 mg/kg, 6 h): 6.87 ± 0.65 µM
- Lung concentration ([3]; I.V. 1 mg/kg, 6 h): 5.42 ± 0.13 µM
- Plasma concentration ([3]; I.V. 1 mg/kg, 6 h): 0.009 ± 0.004 µM
- Kidney concentration ([3]; I.V. 1 mg/kg, 9 h): 5.96 ± 0.76 µM
- Liver concentration ([3]; I.V. 1 mg/kg, 9 h): 9.22 ± 0.81 µM
- Lung concentration ([3]; I.V. 1 mg/kg, 9 h): 5.63 ± 1.00 µM
- Plasma concentration ([3]; I.V. 1 mg/kg, 9 h): 0.008 ± 0.004 µM
- Kidney concentration ([3]; I.V. 1 mg/kg, 12 h): 4.29 ± 0.79 µM
- Liver concentration ([3]; I.V. 1 mg/kg, 12 h): 8.17 ± 1.46 µM
- Lung concentration ([3]; I.V. 1 mg/kg, 12 h): 3.77 ± 0.96 µM
- Plasma concentration ([3]; I.V. 1 mg/kg, 12 h): 0.007 ± 0.005 µM
- Kidney concentration ([3]; I.V. 1 mg/kg, 48 h): 0.879 ± 0.278 µM
- Liver concentration ([3]; I.V. 1 mg/kg, 48 h): 1.67 ± 0.872 µM
- Lung concentration ([3]; I.V. 1 mg/kg, 48 h): 1.67 ± 0.28 µM
- Liver concentration ([3]; I.V. 1 mg/kg, 72 h): 0.620 ± 0.024 µM
- Lung concentration ([3]; I.V. 1 mg/kg, 72 h): 0.852 ± 0.075 µM
- Kidney concentration ([3]; I.V. 1 mg/kg, 144 h): 0.174 ± 0.018 µM
- Liver concentration ([3]; I.V. 1 mg/kg, 144 h): 0.129 ± 0.041 µM
- Lung concentration ([3]; I.V. 1 mg/kg, 144 h): 0.263 ± 0.034 µM
- AUMC0-t ([3]; I.V. 1 mg/kg, Kidney): 193,238 hr*hr.*ng/mL
- AUMC0-∞ ([3]; I.V. 1 mg/kg, Kidney): 2,810,677 hr*hr.*ng/mL
- AUMC0-t ([3]; I.V. 1 mg/kg, Liver): 275,511 hr*hr.*ng/mL
- AUMC0-∞ ([3]; I.V. 1 mg/kg, Liver): 3,897,180 hr*hr.*ng/mL
- AUMC0-t ([3]; I.V. 1 mg/kg, Lung): 181,502 hr*hr.*ng/mL
- AUMC0-∞ ([3]; I.V. 1 mg/kg, Lung): 1,038,814 hr*hr.*ng/mL
- LPS induced IL-6 expression level (IL-6): significantly reduce
- Rat lung con. ([4]; 1 mg/kg (P.O.) single dose, 1 h): 0.15 ± 0.03 ng/mL
- Rat lung con. ([4]; 1 mg/kg (P.O.) single dose, 2 h): 0.26 ± 0.06 ng/mL
- Rat lung con. ([4]; 1 mg/kg (P.O.) single dose, 4 h): 0.93 ± 0.32 ng/mL
- Rat lung con. ([4]; 1 mg/kg (P.O.) single dose, 6 h): 1.01 ± 0.10 ng/mL
- Rat lung con. ([4]; 1 mg/kg (P.O.) single dose, 9 h): 1.47 ± 0.09 ng/mL
- Rat lung con. ([4]; 1 mg/kg (P.O.) single dose, 12 h): 1.61 ± 0.48 ng/mL
- Rat lung con. ([4]; 1 mg/kg (P.O.) single dose, 24 h): 1.32 ± 0.63 ng/mL
- Rat lung con. ([4]; 1 mg/kg (P.O.) single dose, 48 h): 0.76 ± 0.11 ng/mL
- Rat lung con. ([4]; 1 mg/kg (P.O.) single dose, 72 h): 0.36 ± 0.08 ng/mL
- Rat lung con. ([4]; 1 mg/kg (Q.D.× 3 days, P.O.), 1 h): 5.78 ± 0.61 ng/mL
- Rat lung con. ([4]; 1 mg/kg (Q.D.× 3 days, P.O.), 2 h): 6.51 ± 0.67 ng/mL
- Rat lung con. ([4]; 1 mg/kg (Q.D.× 3 days, P.O.), 4 h): 6.65 ± 1.21 ng/mL
- Rat lung con. ([4]; 1 mg/kg (Q.D.× 3 days, P.O.), 6 h): 6.96 ± 0.87 ng/mL
- Rat lung con. ([4]; 1 mg/kg (Q.D.× 3 days, P.O.), 9 h): 8.34 ± 1.09 ng/mL
- Rat lung con. ([4]; 1 mg/kg (Q.D.× 3 days, P.O.), 12 h): 8.16 ± 1.58 ng/mL
- Rat lung con. ([4]; 1 mg/kg (Q.D.× 3 days, P.O.), 24 h): 7.25 ± 0.79 ng/mL
- Rat lung con. ([4]; 1 mg/kg (Q.D.× 3 days, P.O.), 48 h): 5.97 ± 0.81 ng/mL
- Rat lung con. ([4]; 1 mg/kg (Q.D.× 3 days, P.O.), 72 h): 4.89 ± 1.35 ng/mL
- Lung concentration ([4]; rats, 1 mg/kg single oral dose, 12 h, 1 mg/kg): 1.6 µM
- time of maximum lung concentration (Cmax) ([4]; rats, 1 mg/kg/day oral 3 days): 9 h
- Tmax (in vivo [5]; 1 mg/kg): 12 h
- concentration at 12 h (in vivo [5]; 1 mg/kg): 1610 nM
- concentration at 72 h (in vivo [5]; 1 mg/kg): 360 nM
- concentration at 1 h (in vivo [5]; 1 mg/kg/day): 5 to 6 µM
- concentration at 72 h (in vivo [5]; 1 mg/kg/day): 4890 nM
- CC50 (in vitro): 1960 nM
- SARS-CoV-2 specific nucleocapsid level, anti-replication effect ([6]; Vero cells infected […], then drug 24 h): dose-dependently decreased
- SARS-CoV-2 specific nucleocapsid level, anti-entry effect ([6]; Vero cells pretreated with drug […], virus […], 24 h): confirmed this trend
